Test [1] deals with muscarinic cholinergic receptors. Conditions: 3H-QNB binding assay.
The target is the same in test [2]. The experiment in a line: 3H-oxotremorine-M binding study (oxotremorine-M versus N-methylscopolamine, Freedman et al.). Particulars: inhibition of binding of 3H-oxotremorine-M; read-out: inhibition costant (Ki).
A further test addresses m4 receptors (Homo sapiens, UniProt P08173). Format: cell-based. Particulars: CHO m4 cells treated with pertussis toxin.

One may read the IC50 as the point on the concentration scale where inhibition reaches its midpoint. Read a high IC50 as weaker potency. What is called Ki is a dissociation constant, usually derived from enzyme kinetics or from competition with a known ligand.

m4 receptors, sequence (P08173 whole entry): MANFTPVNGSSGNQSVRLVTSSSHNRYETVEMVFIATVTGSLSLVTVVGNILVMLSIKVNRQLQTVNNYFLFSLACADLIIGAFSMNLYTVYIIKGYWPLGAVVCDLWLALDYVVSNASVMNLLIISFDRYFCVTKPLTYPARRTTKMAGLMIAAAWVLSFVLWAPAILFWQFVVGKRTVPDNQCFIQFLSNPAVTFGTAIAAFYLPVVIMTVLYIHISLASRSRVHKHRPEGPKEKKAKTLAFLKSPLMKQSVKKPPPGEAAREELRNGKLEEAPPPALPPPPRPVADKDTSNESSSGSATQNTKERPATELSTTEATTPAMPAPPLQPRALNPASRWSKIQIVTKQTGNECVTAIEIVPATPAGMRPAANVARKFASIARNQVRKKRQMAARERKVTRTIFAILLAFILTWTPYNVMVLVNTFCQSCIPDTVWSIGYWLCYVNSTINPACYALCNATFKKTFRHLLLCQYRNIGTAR

`CCCCCCOc1nsnc1C1=CCCN(C)C1` [Xanomeline, 3-(4-hexyloxy-1,2,5-thiadiazol-3-yl)-1,2,5,6-tetrahydro-1-methylpyridine] showed an IC50 in test [1] below 1000 µM. Moreover, in test [2], the inhibition constant Ki is 0.002 µM. Besides, the “formation of cAMP” value on m4 receptors was “efficaciously and potently stimulated the formation of cAMP”.

For the origin of these results see patent EP0821959A2 (priority 1996, dated 1998).
